Earlier results on one substance are cited in patent publication EP3721896B1, “EPIDERMAL GROWTH FACTOR (EGF) AND VARIANTS THEREOF FOR TREATING OR PREVENTING INFLAMMATORY DEMYELINATING DISORDERS” (Scalabrino, Giuseppe, priority 2019, dated 2023).

The data set relates to experimental autoimmune encephalomyelitis (EAE). The note with it: administered alone; Lewis rat; from EP1870106A2.

Take GHRP-6: the “Effect on course of EAE as compared to placebo” value is given as “no effect was observed”.
